Source: US20110045998A1, “CANDIDATE GENES AND BLOOD BIOMARKERS FOR BIPOLAR MOOD DISORDER, ALCOHOLISM AND STRESS DISORDER” (priority 2007, published 2011)
Entries after “also recorded” stand apart in the source; their conditions may differ. Like-named read-outs stand apart in the source and are kept apart here.

Assays:
[1] = test system: brain gene expression (PFC, AMY, CP, VT); design: key: I—Increased in expression; D—decreased in expression; settings: cited from earlier work
DBP KO NST mice = test: Locomotor pattern testing (open field video tracking) after acute methamphetamine, non-stressed mice; type: in vivo; settings: methamphetamine 10 mg/kg intra-peritoneal
Experimental: Drugs: Mice were administered saline, valproate (200 mg/kg), or methamphetamine (10 mg/kg) acutely by intra-peritoneal injection.
Locomotor Pattern Testing: A SMART II Video Tracker (VT) system (San Diego Instruments, San Diego, Calif.) was used to track movement of mice immediately after drug administration and again 24 hours later. After injection, mice were placed in the lower-right-hand corner of one of four adjacent, 41×41×34-cm^3 enclosures. Mice had no physical contact with other mice during testing. Each enclosure has nine pre-defined areas, i.e. center area, corner area, and wall area. The movements of the mice were recorded for 30 minutes.
Measures of overall locomotor activity were obtained and represented by the total distance traveled within and between each of the nine regions of the enclosure. Two categories of behavior were obtained. First, the amount of locomotor activity was assessed by using the total distance traveled in the open field in a 30-minute interval. Second, the spatial scaling exponent, d, or spatial D, was obtained. Spatial D is a quantified measure of the geometric patterns of locomotor activity. Briefly, spatial d is a measure of the non-linear nature of an animal's locomotor movement and is quantified on a scale from 1 to 2; with d=1 indicating extremely linear movement and d=2 representing highly non-linear locomotor movement.
Data and Statistical Analysis: Two-way analyses of variance (ANOVAs) were used to compare total distance traveled and spatial d. Genotype and/or drug treatment were between-subjects variables, and time was a within-subjects variable. All computations were conducted with SPSS statistical software (SPSS Inc., Chicago, Ill.).
Non-Stress (NST) vs. Stress (ST) Experiments: For the Non-Stress (NST) experiments, mice were group housed. For the Stress (ST) experiments, mice were subjected to a chronic stress paradigm consisting of isolation (single housing) for one month, with an acute stressor (behavioral challenge tests) in Week 3. […] At four weeks, mice were injected with either saline or methamphetamine.

DBP KO mice = test: Sleep deprivation experiments with valproate pre-treatment, locomotor activity by video tracking; type: in vivo
Experimental: To further characterize the behavioral phenotype of the DBP KO mice, group-housed (NST) male DBP KO mice were subjected to sleep deprivation for a 24 hour period. Following sleep deprivation, sleep-deprived (SD) mice and control non sleep-deprived (NSD) mice were monitored with video-tracking software. […] In a second sleep deprivation experiment, mice were pre-treated with an IP valproate injection (200 mg/kg) immediately prior to the sleep deprivation experiment. If the change in locomotor behavior that accompanies sleep-deprivation in the SD animals is representative of an endophenotype that is associated with bipolar disorder, then administration of the mood stabilizing agent valproate should counteract the behavioral response of DBP KO mice to sleep deprivation. […] Sleep Deprivation Experiments: Sleep deprivation studies consisted of light cycle changes, with no handling of animals involved, to avoid inducing non-sleep related handling stress confounds. Male DBP KO mice were used in the sleep deprivation experiments as follows: sleep deprived (SD) animals were removed from the standard housing room with a 12 hour off/12 hour on (reverse) light cycle and kept in a dark room overnight the night before the experiment. Non-sleep deprived (NSD) animals were kept in the housing room with the standard light cycle the night before the experiment to allow for a normal night's sleep. […]

CN[C@@H](C)Cc1ccccc1 [methamphetamine]
Cdk5r1 expression, Bipolar CFG (Ogden et al. 2004) ([1]; AMY, Cat II): AMY Cat II-Meth(D) VPA(D) | Ckmt1 expression, Bipolar CFG (Ogden et al. 2004) ([1]; AMY, Cat III): AMY Cat III-Meth(I) VPA(I) | Sec24d expression, Bipolar CFG (Ogden et al. 2004) ([1]; AMY, Cat III): AMY Cat III-Meth(I) | Gas5 expression, Bipolar CFG (Ogden et al. 2004) ([1]; AMY, Cat IV): AMY Cat IV-Meth(I) | Gnb1 expression, Bipolar CFG (Ogden et al. 2004) ([1]; AMY, Cat IV): AMY Cat IV-Meth (I) | Mef2a expression, Bipolar CFG (Ogden et al. 2004) ([1]; AMY, Cat IV): AMY Cat IV-Meth (D) | Ttr expression, Bipolar CFG (Ogden et al. 2004) ([1]; CP, Cat IV): CP Cat IV-Meth(I) | Gpr88 expression, Bipolar CFG (Ogden et al. 2004) ([1]; PFC, Cat I): PFC Cat I-Meth(I) VPA (I) | Mef2c expression, Bipolar CFG (Ogden et al. 2004) ([1]; PFC, Cat I): D | Penk1 expression, Bipolar CFG (Ogden et al. 2004) ([1]; PFC, Cat I): PFC Cat I-Meth(I) VPA(I) | Ppp1r1b/Darp32 expression, Bipolar CFG (Ogden et al. 2004) ([1]; PFC, Cat I): PFC Cat I-Meth(I) VPA(I) | Tac1 expression, Bipolar CFG (Ogden et al. 2004) ([1]; PFC, Cat I): PFC Cat I-Meth(I) VPA(I) | Alcam expression, Bipolar CFG (Ogden et al. 2004) ([1]; PFC, Cat III): PFC Cat III-Meth(D) | Ddx6 expression, Bipolar CFG (Ogden et al. 2004) ([1]; PFC, Cat III): PFC Cat III-Meth (D) | Gng7 expression, Bipolar CFG (Ogden et al. 2004) ([1]; PFC, Cat III): PFC Cat III-Meth(I) VPA(I) | Scn4b expression, Bipolar CFG (Ogden et al. 2004) ([1]; PFC, Cat III): PFC Cat III-Meth(I) VPA(I) | Actb expression, Bipolar CFG (Ogden et al. 2004) ([1]; PFC, Cat IV): PFC Cat IV-Meth (D) | Arhgap5 expression, Bipolar CFG (Ogden et al. 2004) ([1]; PFC, Cat IV): PFC Cat IV-Meth (I) | Gabra4 expression, Bipolar CFG (Ogden et al. 2004) ([1]; PFC, Cat IV): PFC Cat IV-METH (I) | Gsk3b expression, Bipolar CFG (Ogden et al. 2004) ([1]; PFC, Cat IV): PFC Cat IV-METH (D) | Hectd1 expression, Bipolar CFG (Ogden et al. 2004) ([1]; PFC, Cat IV): PFC Cat IV-Meth(D) | Peg3 expression, Bipolar CFG (Ogden et al. 2004) ([1]; PFC, Cat IV): PFC Cat IV-Meth(D) | Pten expression, Bipolar CFG (Ogden et al. 2004) ([1]; PFC, Cat IV): PFC Cat IV-Meth(D) | Tmod2 expression, Bipolar CFG (Ogden et al. 2004) ([1]; PFC, Cat IV): PFC Cat IV-METH (D) | Alcam expression, Bipolar CFG (Ogden et al. 2004) ([1]; VT, Cat IV): VT Cat IV-Meth(D) | Ddx6 expression, Bipolar CFG (Ogden et al. 2004) ([1]; VT, Cat IV): VT Cat IV-Meth (D) | stereotypy, as measured by Spatial Deviance (DBP KO NST mice; DBP KO NST mice): reduction in stereotypy | Total Distance Traveled (DBP KO NST mice; DBP KO NST mice, 30 minutes open field): reversed this decrease | stereotypy, as measured by Spatial Deviance (DBP KO NST mice; WT mice): trend towards an increase in stereotypy

CCCC(CCC)C(=O)O [valproate, valproic acid]
locomotion in NSD animals (DBP KO mice; NSD DBP KO mice, valproate 200 mg/kg vs non-valproate treated): did not have any significant effect on locomotion | total distance traveled, sleep-deprived (SD) vs non sleep-deprived (NSD) (DBP KO mice; male DBP KO mice, IP valproate 200 mg/kg prior to 24 hour sleep deprivation): increase in locomotion is prevented; also recorded: no significant difference in the locomotor behavior of SD and NSD animals | Cdk5r1 expression, Bipolar CFG (Ogden et al. 2004) ([1]; AMY, Cat II): AMY Cat II-Meth(D) VPA(D) | Cacnb2 expression, Bipolar CFG (Ogden et al. 2004) ([1]; AMY, Cat III): AMY Cat III-VPA(D) | Ckmt1 expression, Bipolar CFG (Ogden et al. 2004) ([1]; AMY, Cat III): AMY Cat III-Meth(I) VPA(I) | Ids expression, Bipolar CFG (Ogden et al. 2004) ([1]; AMY, Cat III): AMY Cat III-VPA(D) | Mef2c expression, Bipolar CFG (Ogden et al. 2004) ([1]; AMY, Cat III): AMY Cat III-VPA(D) | Ptov1 expression, Bipolar CFG (Ogden et al. 2004) ([1]; AMY, Cat III): AMY Cat III-VPA(I) | Actb expression, Bipolar CFG (Ogden et al. 2004) ([1]; AMY, Cat IV): AMY Cat IV-VPA (I) | Alcam expression, Bipolar CFG (Ogden et al. 2004) ([1]; AMY, Cat IV): AMY Cat IV-VPA(D) | Atp8a1 expression, Bipolar CFG (Ogden et al. 2004) ([1]; AMY, Cat IV): AMY Cat IV-VPA(D) | Clasp2 expression, Bipolar CFG (Ogden et al. 2004) ([1]; AMY, Cat IV): AMY Cat IV-VPA(D) | Peg3 expression, Bipolar CFG (Ogden et al. 2004) ([1]; AMY, Cat IV): AMY Cat IV-VPA(D) | Ptpn5/Step expression, Bipolar CFG (Ogden et al. 2004) ([1]; AMY, Cat IV): AMY Cat IV-VPA (I) | Sez6 expression, Bipolar CFG (Ogden et al. 2004) ([1]; AMY, Cat IV): AMY Cat IV-VPA(I) | Timp2 expression, Bipolar CFG (Ogden et al. 2004) ([1]; AMY, Cat IV): AMY Cat IV-VPA (D) | Cdk5r1 expression, Bipolar CFG (Ogden et al. 2004) ([1]; CP, Cat III): CP Cat III-VPA(I) | Alcam expression, Bipolar CFG (Ogden et al. 2004) ([1]; CP, Cat IV): CP Cat IV-VPA(D) | Cacnb2 expression, Bipolar CFG (Ogden et al. 2004) ([1]; CP, Cat IV): CP Cat IV-VPA(I) | Gnb1 expression, Bipolar CFG (Ogden et al. 2004) ([1]; CP, Cat IV): CP Cat IV-VPA (D) | Ids expression, Bipolar CFG (Ogden et al. 2004) ([1]; CP, Cat IV): CP Cat IV-VPA(I) | Mef2a expression, Bipolar CFG (Ogden et al. 2004) ([1]; CP, Cat IV): CP Cat IV-VPA (I) | Gsk3b expression, Bipolar CFG (Ogden et al. 2004) ([1]; CP, IV): CP IV-VPA (D) | Gpr88 expression, Bipolar CFG (Ogden et al. 2004) ([1]; PFC, Cat I): PFC Cat I-Meth(I) VPA (I) | Mef2c expression, Bipolar CFG (Ogden et al. 2004) ([1]; PFC, Cat I): I | Penk1 expression, Bipolar CFG (Ogden et al. 2004) ([1]; PFC, Cat I): PFC Cat I-Meth(I) VPA(I) | Ppp1r1b/Darp32 expression, Bipolar CFG (Ogden et al. 2004) ([1]; PFC, Cat I): PFC Cat I-Meth(I) VPA(I) | Tac1 expression, Bipolar CFG (Ogden et al. 2004) ([1]; PFC, Cat I): PFC Cat I-Meth(I) VPA(I) | Gng7 expression, Bipolar CFG (Ogden et al. 2004) ([1]; PFC, Cat III): PFC Cat III-Meth(I) VPA(I) | Scn4b expression, Bipolar CFG (Ogden et al. 2004) ([1]; PFC, Cat III): PFC Cat III-Meth(I) VPA(I)
